Structures can show the parent of a compound that is named as a salt. Starred links: 1 amine or outer side, 2 acyl side, 3 side chain; linkers in the order of their positions; H or OH if unused. Non-standard residues stand in square brackets, D forms with d. Residues, ends and D or L forms follow the SMILES beside them. Groups on a side chain read outwards from the residue. *: point of attachment. F(4amPEG2NH-NOTA-AlF) = aluminum [18F]fluoride complex of (S)-2,2'-(7-(1-(4-(2-amino-2-carboxyethyl)phenyl)-3,12-dioxo-5,8-dioxa-2,11-diazatridecan-13-yl)-1,4,7-triazonane-1,4-diyl)diacetic acid (Phe with 4-aminomethyl-PEG2-NOTA-Al18F), O=C([O-])CN1CCN(CC(=O)[O-])CCN(CC(=O)NCCOCCOCC(=O)NCc2ccc(C[C@H](N[*:1])C(=O)[*:2])cc2)CC1.[18F][Al+2]; F(4OEtNHDOTA-Ga) = gallium complex of (S)-2,2',2''-(10-(2-((2-(4-(2-amino-2-carboxyethyl)phenoxy)ethyl)amino)-2-oxoethyl)-1,4,7,10-tetraazacyclododecane-1,4,7-triyl)triacetic acid (Phe with 4-O-ethylamino-DOTA-Ga), O=C([O-])CN1CCN(CC(=O)[O-])CCN(CC(=O)NCCOc2ccc(C[C@H](N[*:1])C(=O)[*:2])cc2)CCN(CC(=O)[O-])CC1.[Ga+3]; COpipzaa = 4-(carboxymethyl)piperazine-1-carbonyl, O=C(O)CN1CCN(C(=O)*)CC1; hS(Pr) = O-propyl-L-homoserine, CCCOCC[C@H](N[*:1])C(=O)[*:2]; Piperazinyl(4-CH2COOH) = O=C(O)CN1CCN(*)CC1; AEF = NCCOc1ccc(C[C@H](N)C(=O)O)cc1; NMeF = CN[C@@H](Cc1ccccc1)C(=O)O; Ahp(2) = CCCCC[C@H](N)C(=O)O; NMeK = CN[C@@H](CCCCN)C(=O)O; hSer = N[C@@H](CCO)C(=O)O; CO = O=C([*:1])[*:2]
Assays:
mouse FAP [1] = target: T1, mouse FAP (Mus musculus, UniProt P97321); test: Surface plasmon resonance (SPR) for peptide affinity, mouse FAP; type: binding
T1 construct: biotinylated His, Avi tag, mouse FAP (26-761, FAP-M82Q5); His; Avi tag (biotinylated); purchased AcroBiosystems FAP-M82Q5
T1 sequence (P97321 26-761): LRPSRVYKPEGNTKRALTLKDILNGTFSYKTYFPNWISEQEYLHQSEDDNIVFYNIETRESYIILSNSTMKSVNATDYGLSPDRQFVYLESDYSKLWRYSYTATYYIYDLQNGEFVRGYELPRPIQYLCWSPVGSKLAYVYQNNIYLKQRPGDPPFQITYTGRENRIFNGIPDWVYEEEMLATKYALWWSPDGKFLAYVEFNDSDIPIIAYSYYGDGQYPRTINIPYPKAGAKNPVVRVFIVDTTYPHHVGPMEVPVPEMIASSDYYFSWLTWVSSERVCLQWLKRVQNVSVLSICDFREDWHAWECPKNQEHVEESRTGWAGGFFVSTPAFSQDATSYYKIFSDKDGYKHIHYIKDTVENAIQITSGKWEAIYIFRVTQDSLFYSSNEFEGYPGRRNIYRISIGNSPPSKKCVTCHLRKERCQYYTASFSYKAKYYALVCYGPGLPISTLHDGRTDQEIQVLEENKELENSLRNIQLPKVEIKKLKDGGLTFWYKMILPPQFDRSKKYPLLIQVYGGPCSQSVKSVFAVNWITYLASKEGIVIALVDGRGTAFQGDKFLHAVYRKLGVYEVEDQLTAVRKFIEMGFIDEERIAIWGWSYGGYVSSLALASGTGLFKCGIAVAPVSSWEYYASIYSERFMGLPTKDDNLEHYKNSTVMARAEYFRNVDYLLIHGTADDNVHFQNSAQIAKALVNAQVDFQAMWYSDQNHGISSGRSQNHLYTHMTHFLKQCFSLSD
In short: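 Biotinylated His/Avi-tagged FAP ectodomains (human 26-760, mouse 26-761) captured or immobilized on Biacore sensor chips; peptides run at 25 °C in HBS-EP+ pH 7.6 with 2% DMSO, single-cycle kinetics, 8 concentrations. KD from 1:1 binding-model fit of sensorgrams.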

human FAP = target: T2, human FAP (Homo sapiens, UniProt Q12884); test: Enzymatic FAP competition assay (Z-Gly-Pro-AMC fluorescence), human FAP; type: biochemical; settings: read-out: h. FAP, Enz., IC50
T2 construct: the biotinylated His, Avi tag, human FAP (26-760, FAP-H82Q6); His; Avi tag (biotinylated); purchased AcroBiosystems FAP-H82Q6
T2 sequence (Q12884 26-760): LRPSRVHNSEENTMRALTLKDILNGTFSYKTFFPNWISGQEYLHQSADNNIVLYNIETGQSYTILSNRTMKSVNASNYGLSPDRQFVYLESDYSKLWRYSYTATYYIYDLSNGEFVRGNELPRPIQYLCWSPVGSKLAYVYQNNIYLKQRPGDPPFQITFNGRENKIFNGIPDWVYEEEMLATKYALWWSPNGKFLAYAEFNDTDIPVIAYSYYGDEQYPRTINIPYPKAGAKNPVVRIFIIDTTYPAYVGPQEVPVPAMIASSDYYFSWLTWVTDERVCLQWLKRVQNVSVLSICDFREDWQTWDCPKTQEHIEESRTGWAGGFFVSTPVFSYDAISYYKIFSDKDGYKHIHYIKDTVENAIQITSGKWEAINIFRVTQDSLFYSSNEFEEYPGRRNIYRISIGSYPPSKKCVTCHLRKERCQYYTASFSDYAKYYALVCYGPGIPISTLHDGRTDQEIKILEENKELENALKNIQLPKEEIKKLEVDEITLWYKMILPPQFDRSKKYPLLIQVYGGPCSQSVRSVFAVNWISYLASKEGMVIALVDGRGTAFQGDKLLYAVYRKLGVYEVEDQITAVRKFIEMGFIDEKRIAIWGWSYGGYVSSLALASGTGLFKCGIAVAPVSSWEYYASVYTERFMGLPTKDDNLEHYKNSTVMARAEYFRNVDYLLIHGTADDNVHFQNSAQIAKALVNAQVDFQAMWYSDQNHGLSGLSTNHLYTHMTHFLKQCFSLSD
In short: (§1)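 Biotinylated His/Avi-tagged FAP ectodomain (human 26-760, mouse 26-761) at 0.01 nM, preincubated 24 h with peptides (14 concentrations, up to 1 μM) in pH 7.5 phosphate, 150 mM NaCl, 0.05% Tween20, 1% DMSO. Then 50 μM Z-Gly-Pro-AMC, 4 h at 22-24° C; AMC fluorescence (380/460 nm) gave IC50 from duplicate points.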

mouse FAP [2] = target: T1, mouse FAP; test: Enzymatic FAP competition assay (Z-Gly-Pro-AMC fluorescence), mouse FAP; type: biochemical; settings: read-out: m. FAP, Enz., IC50
In short: as §1

| Kd (mouse FAP [1]) [nM] | IC50 (human FAP) [nM] | IC50 (mouse FAP [2]) [nM] | Molecule |
| --- | --- | --- | --- |
| 0.026 | 0.03 | 0.058 | Gly-Gly-NMePhe-F(4OEtNHDOTA-Ga)-Ahp-Trp-Gly-Tyr-Asp-D-Pro (cyclo(GG[NMeF][F(4OEtNHDOTA-Ga)][Ahp(2)]WGYD[dP]); also: Ga complex of DOTA) [Example C51] |
| < 0.035 | 0.013 | 0.035 | Gly-Gly-NMePhe-F(4amPEG2NH-NOTA-AlF)-hS(Pr)-Trp-Gly-K(COpipzaa)-Asp-D-Pro (cyclo(GG[NMeF][F(4amPEG2NH-NOTA-AlF)][hS(Pr)]WGK(COpipzaa)D[dP]); also: Al[18F]F complex) [Example C53] |
| 0.242 | 0.69 | 0.61 | CCCCC[C@@H]1NC(=O)[C@H](Cc2ccc(O)cc2)NC(=O)[C@H](Cc2ccccc2)N(C)C(=O)CNC(=O)CNC(=O)[C@H]2CCCN2C(=O)[C@H](CCC(=O)O)NC(=O)[C@H](Cc2ccc(O)cc2)NC(=O)CNC(=O)[C@H](Cc2c[nH]c3ccccc23)NC1=O [Example A71, Gly-Gly-NMePhe-Tyr-Ahp-Trp-Gly-Tyr-Glu-D-Pro] (cyclo([Ahp(2)]WGYE[dP]GG[NMeF]Y)) |
| 3.6 | 2.4 | 4.1 | CCCCC[C@@H]1NC(=O)[C@H](Cc2ccc(O)cc2)NC(=O)[C@H](Cc2ccccc2)N(C)C(=O)CNC(=O)CNC(=O)[C@H]2CCCN2C(=O)[C@H](CC(=O)O)NC(=O)[C@H](Cc2ccc(O)cc2)NC(=O)[C@@H](C)NC(=O)[C@H](Cc2c[nH]c3ccccc23)NC1=O [Example A64, Gly-Gly-NMePhe-Tyr-Ahp-Trp-D-Ala-Tyr-Asp-D-Pro] (cyclo([Ahp(2)]W[dA]YD[dP]GG[NMeF]Y)) |
| 0.2 | 0.089 | 0.36 | CCCCC[C@@H]1NC(=O)[C@H](Cc2ccc(O)cc2)NC(=O)[C@H](Cc2ccccc2)N(C)C(=O)CNC(=O)[C@H](CCO)NC(=O)[C@H]2CCCN2C(=O)[C@H](CC(=O)O)NC(=O)[C@H](Cc2ccc(O)cc2)NC(=O)CNC(=O)[C@H](Cc2c[nH]c3ccccc23)NC1=O [Example A42, hSer-Gly-NMePhe-Tyr-Ahp-Trp-Gly-Tyr-Asp-D-Pro] (cyclo([Ahp(2)]WGYD[dP][hSer]G[NMeF]Y)) |
| 2.2 | 0.5 | 2.8 | CCCCC[C@@H]1NC(=O)[C@H](Cc2ccc(OCCN)cc2)NC(=O)[C@H](Cc2ccccc2)N(C)C(=O)CNC(=O)[C@H](CCCCNC(=O)N2CCN(CC(=O)O)CC2)NC(=O)[C@H]2CCCN2C(=O)[C@H](CC(=O)O)NC(=O)[C@H](Cc2ccc(O)cc2)NC(=O)CNC(=O)[C@H](Cc2c[nH]c3ccccc23)NC1=O [Example A46, K(COpipzaa)-Gly-NMePhe-F(4OEtNH2)-Ahp-Trp-Gly-Tyr-Asp-D-Pro, TFA salt] (cyclo([AEF][Ahp(2)]WGYD[dP]K([CO-Piperazinyl(4-CH2COOH)])G[NMeF])) |

| Molecule | Kd (mouse FAP [1]) [nM] | IC50 (human FAP) [nM] | IC50 (mouse FAP [2]) [nM] |
| --- | --- | --- | --- |
| CCCCC[C@@H]1NC(=O)[C@H](Cc2ccc(O)cc2)NC(=O)[C@H](Cc2ccccc2)N(C)C(=O)CNC(=O)CNC(=O)[C@H]2CCCN2C(=O)[C@H](CC(=O)O)NC(=O)[C@H](CCCCNC(=O)N2CCN(CC(=O)O)CC2)N(C)C(=O)CNC(=O)[C@H](Cc2c[nH]c3ccccc23)NC1=O [Example A3, 2-((9S,12S,15S,18S,24S,27S,32aR)-18-((1H-indol-3-yl)methyl)-9-benzyl-24-(4-(4-(carboxymethyl)piperazine-1-carboxamido)butyl)-12-(4-hydroxybenzyl)-8,23-dimethyl-1,4,7,10,13,16,19,22,25,28-decaoxo-15-pentyldotriacontahydropyrrolo[1,2-a][1,4,7,10,13,16,19,22,25,28]decaazacyclotriacontin-27-yl)acetic acid TFA salt] (cyclo([Ahp(2)]WG[NMeK]([CO-Piperazinyl(4-CH2COOH)])D[dP]GG[NMeF]Y)) | 1.9 | 0.76 | 0.95 |

— US20250090699A1, “FAP TARGETING CYCLIC PEPTIDES AND CONJUGATES THEREOF” (Novartis AG, priority 2023, published 2025)
